Test results taken from patent US20250268863A1, “DOSING REGIMENS FOR TREATMENT OF PATIENTS WITH LOCALLY ADVANCED SQUAMOUS CELL CARCINOMA” (priority 2019, published 2025).
“Also recorded” adds a separate entry of the source.

Experiments:
[1] = system: locally advanced squamous cell cancer of the head and neck (LA-SCCHN); experiment: Dose escalation of Debio 1143 with concurrent chemoradiotherapy (MTD determination); assay type: in vivo
Protocol: Additionally, for each Debio 1143 dose level (DL) and overall, according to variant 1 of this example: • (a) the safety profile of Debio 1143 in combination with concurrent CRT was assessed; • (b) the antitumour activity of the recommended dose (RD) of Debio 1143 in combination with concurrent CRT in the study population was evaluated. • In a variant 2 of this example, the following items (c) to (f) were explored in addition to items (a) and (b) of variant 1: • (c) the pharmacokinetics (PK) of Debio 1143 and cisplatin when administered in combination with radiation therapy, and explore the potential for drug-drug interactions of Debio 1143 in combination with cisplatin was explored; • (d) the pharmacodynamic (PDy) biomarkers of Debio 1143 activity in combination with concurrent CRT were explored; • (e) the PK/PDy, PK/efficacy, PK/safety, PDy/efficacy and PDy/safety relationships and pharmacogenetic (PGx) factors that may affect Debio 1143 PK were explored; and • (f) the pharmacogenomic and tumour PGx factors were explored.
During the screening phase, subjects were evaluated and staged using the American Joint Committee on Cancer (“AJCC”) […] staging system.
Escalating doses of Debio 1143 were added to CRT. […] The starting dose of Debio 1143 in this combination study was 100 mg/day over 14 days every 21 days. […]

[2] = system: locally advanced squamous cell cancer of the head and neck (LA-SCCHN); experiment: Double-blind randomised placebo-controlled Phase II study of Debio 1143 + CRT: efficacy; assay type: in vivo, human; settings: for Locoregional control rate at 18 months after CRT: 200 mg/day days 1-14 q3w + cisplatin CRT, N = 48 (ITT); for complete response / partial response: of 48 patients
Protocol: 96 patients were randomized 95 were treated.
The primary endpoint to the study was locoregional control rate (LRC) at 18 months after CRT. Key secondary endpoints included PFS, duration of LRC, overall survival, […] and CR at 3 and 6 months after CRT completion.
The main inclusion criteria were as follows: • Previously untreated, inoperable (unresectable) Stage III, Stage IVA, or Stage IVB as per AJCC TNM staging version 7.0 (2010) • LA-SCCHN of the oral cavity, hypopharynx, larynx, or oropharynx (HPV/p16 both negative or positive) • Heavy smoking history (>10 pack-years) • Negative HIV/HBV/HCV • Performance Status by Eastern Cooperative Oncology Group (ECOG)=0 or 1.
The main exclusion criteria were as follows: • Non-compensated liver cirrhosis (Child-Pugh class C) • >75 years • Non-cisplatin eligible.
A multicentre, phase 2, double-blind, randomised, placebo-controlled study was conducted to evaluate the safety and efficacy of oral Debio 1143 at 200 mg/day on Days 1-14 of 21-Day cycles combined with concomitant cisplatin-based chemoradiotherapy in patients with LA-SCCHN. Male and female patients were eligible if they were aged 18 to 75 years with histologically confirmed LA-SCCHN and fulfilled the following criteria: previously untreated, stage III, IVa or IVb (according to the American Joint Committee on Cancer 2010 staging system [AJCC TNM v7.0 2010]) of one or more of the following sites: oral cavity, oropharynx, hypopharynx and larynx and with T 2-4, N0-3, M0 measurable disease according to Response Evaluation Criteria in Solid Tumours (RECIST), version 1⋅1. Patients were to have a smoking history of more than 10 pack-years, and no medical history of hepatitis B or hepatitis C. For patients with oropharyngeal cancer, tumour HPV-status was determined by the presence of p16 using immunohistochemistry. Other inclusion criteria included: Eastern Cooperative Oncology Group (ECOG) performance status of 0 or 1, no clinically significant cardiac disease and no clinically significant hearing impairment that would have contraindicated the use of chemotherapy with HD-cisplatin.
Exclusion criteria included nasopharyngeal, paranasal sinuses, nasal cavity tumours or thyroid cancers, squamous cell cancer involving cervical neck nodes but from unknown primary site, unknown lymph node status, metastatic disease, any prior or current treatment for invasive head and neck cancer of any kind (including, but not limited to, prior tyrosine kinase inhibitors, prior neoadjuvant therapy, prior surgical resection, or use of any investigational agent), weight loss of >10% during the previous month, non-compensated liver cirrhosis, gastro-intestinal disorders that could affect drug absorption, concurrent treatment with any other systemic anticancer therapy or concomitant treatment with any drug on the prohibited medication list, history of uncontrolled or symptomatic angina, arrhythmias, or congestive heart failure, history of another malignancy within the last 5 years with the exception of completely resected basal or squamous cell skin cancer or successfully treated in-situ carcinoma, history of non-invasive lesion or in-situ carcinoma, including in the head and neck region that was successfully treated with surgery, peripheral neuropathy (grade 2 or above), clinical hearing loss, history of allergic reactions to appropriate antiemetics, human immunodeficiency virus infection. The protocol was approved by the institutional review boards or ethics committees of all participating centres. The study was carried out in accordance with the protocol, the principles expressed in the Declaration of Helsinki, and applicable regulatory requirements. All patients provided written informed consent in advance of study-specific procedures. […]

[3] = system: locally advanced squamous cell cancer of the head and neck (LA-SCCHN); experiment: Double-blind randomised placebo-controlled Phase II study of Debio 1143 + CRT: safety
Protocol: A double-blind randomized placebo-controlled Phase II study was conducted. […] All subjects received 100 mg/m^2 cisplatin on day 2 of each three-week cycle (up to three cycles) concomitantly with radiotherapy (RT). The subjects also received standard fractionation RT with 2 Gy/daily on five days/week for seven weeks up to 70 Gy delivered to the gross-tumor volume (GTV) and 50 Gy to eligible lymph nodes loco-regionally.
Conventional fractionated intensity modulated radiotherapy (IMRT) was delivered to the gross tumour volume (GTV, [primary tumour and involved nodes]), to a total dose of 70 Gy in 2 Gy daily fractions, for 5 days per week over 7 weeks. Primary and neck nodal areas with no tumour involvement (elective/prophylactic irradiation areas) received a total dose of 50 Gy. In accordance with the European Society of Medical Oncology guidelines, patients received prophylactic treatment with granisetron or palonosetron, dexamethasone and aprepitant, prior to and after cisplatin to prevent renal damage and emesis.
Medical history and demographics were collected at screening. Physical examination was conducted at screening, on day 1 of each cycle, at the end of study visit, at the safety follow-up visit and at each subsequent efficacy follow-up visit. Adverse events and co-medication were monitored throughout the study from signature of informed consent (28 days prior to the first dose) until 30 days after the last dose of study drug. Adverse events were graded according to Common Terminology Criteria for Adverse Events (NCI CTCAE) version 4⋅03. All information pertaining to unusual manifestations or adverse events was collected by the investigator at each visit. […] Late toxicities were defined in the protocol and monitored throughout the efficacy follow-up period until the end of study visit.

[4] = as of 21 Jul. 2020, median follow-up 33 months
[5] = first tumour evaluation, approximately 11 weeks after chemoradiotherapy
[6] = six months post chemoradiotherapy
[7] = two-year follow-up, data cut off 15 Jul. 2019

SMILES: CN[C@@H](C)C(=O)N[C@H]1CN(C(=O)CC(C)C)CC[C@H]2CC[C@@H](C(=O)NC(c3ccccc3)c3ccccc3)N2C1=O [Debio 1143, (5S,8S,10aR)—N-benzhydryl-5-[[(2S)-2-(methylamino)propanoyl]amino]-3-(3-methylbutanoyl)-6-oxo-1,2,4,5,8,9,10,10a-octahydropyrrolo[1,2-a][1,5]diazocine-8-carboxamide]
- efficacy versus CRT+placebo ([1]; high risk LA-SCCHN subjects): significantly improves efficacy
- maximum tolerated dose (MTD) ([1]; oral daily for 14 days every three weeks, with cisplatin 100 mg/m^2 and RT 70 Gy): 200 mg
- Locoregional control rate at 18 months after CRT [2]: 54%
- Locoregional control rate at 18 months after CRT ([2]; listed as Debio 1143 + CRT): 54.2%
- Odds Ratio for locoregional control at 18 months (Debio 1143 vs Placebo) ([2]; N = 48 per arm): 2.69
- 3 years OS rate ([2]; as of 21 Jul. 2020): 66%
- Kaplan-Meier estimate of locoregional control at 36 months after the end of chemoradiotherapy ([2]; as of 21 Jul. 2020): 78%
- hazard ratio, duration of locoregional control vs placebo ([2]; as of 21 Jul. 2020): 0.47
- median duration of locoregional control ([2]; as of 21 Jul. 2020): not reached
- probability of PFS at 36 months ([2]; as of 21 Jul. 2020): 72%
- reduction of the risk of disease progression or death vs placebo ([2]; as of 21 Jul. 2020): 66%
- hazard ratio, PFS vs placebo ([2]; as of 21 Jul. 2020, 36 months of follow up): 0.34
- hazard ratio, overall survival vs placebo [2, 4]: 0.49
- median OS [2, 4]: not reached
- reduction of the risk of mortality vs placebo [2, 4]: 51%
- median overall survival ([2]; by 24 months): not yet reached
- Kaplan-Meier estimate of locoregional control at 18 months after the end of chemoradiotherapy ([2]; data cut off 15 Jul. 2019): 78%
- hazard ratio, duration of locoregional control vs placebo ([2]; data cut off 15 Jul. 2019): 0.53
- median duration of locoregional control ([2]; data cut off 15 Jul. 2019): not reached
- median progression-free survival ([2]; data cut off 15 Jul. 2019): not reached
- proportion of patients progression-free at 24 months ([2]; data cut off 15 Jul. 2019): 72%
- complete response [2, 5]: 35%
- partial response [2, 5]: 27%
- complete response [2, 6]: 52%
- partial response [2, 6]: 15%
- hazard ratio, overall survival vs placebo [2, 7]: 0.65
- hazard ratio, progression-free survival vs placebo [2, 7]: 0.37
- patients who died ([3]; data cut off 15 Jul. 2019): 14 patients
- grade 3 bilirubin increases ([3]; in vivo): no grade 3 bilirubin increases
- grade 4 transaminase increases ([3]; in vivo): no grade 4 transaminase increases
- patients with alanine aminotransferase increase leading to dose reduction ([3]; most common event leading to dose reduction): 10%
- patients who discontinued Debio 1143 ([3]; of 48 patients): 15%
- patients with adverse events of at least grade 3 ([3]; of 48 patients): 85%
- patients with grade 1-2 tinnitus ([3]; of 48 patients): 31%
- patients with grade 4 events ([3]; of 48 patients): 19%
- patients with grade 5 events ([3]; of 48 patients): none
- patients with serious treatment-emergent adverse events ([3]; of 48 patients): 63%
- patients with treatment-emergent adverse events leading to dose reductions of Debio 1143 ([3]; of 48 patients): 19%
- late toxicities ([3]; onset >60 days after CRT end, vs placebo): very similar and not increased; also recorded: late toxicity was balanced
- frequency or severity of cisplatin-associated adverse events ([3]; renal insufficiency, febrile neutropenia, thrombocytopenia, peripheral sensory neuropathy, severe vomiting, exception grade 1-2 tinnitus): did not increase the frequency or severity
- overall safety and tolerability of Debio 1143 added to chemoradiotherapy ([3]; vs placebo + CRT): well tolerated; also recorded: remained unchanged
- grade 3 increases in aspartate aminotransferase and alanine aminotransferase ([3]; vs placebo group): higher
- incidence of grade 3 anaemia ([3]; vs placebo group): higher incidence
- incidence of grade 4 neutropenia ([3]; vs placebo group): higher incidence
